Read-outs that look alike come from different tables or passages of the source. Marks after values point to notes of the source that are not given here.

Data set [1] in a line: Loading efficiency of small molecules in microarrayed EVA films. The class given is physicochemical. On the procedure:
To embed molecules into the polymer matrix, they were first dissolved in an appropriate solvent, depending on their respective hydrophobicity. A stock solution of azide (99%, Acros), a hydrophilic molecule, was dissolved in dH2O whereas Nutlin-3a (EMD Chemicals, Gibbstown, N.J.) and camptothecin (Sigma), both hydrophobic molecules, were dissolved in DMSO. Dissolved drugs were then added to 5% EVA at a 1:10 ratio of solvent:EVA. Prior to printing, polymer mixtures were vortexed for 30 s and then homogenized for 1 min before being loaded onto the source plate of the robotic mini-arrayer.
To determine the loading efficiency of factors, polymer formulations were made as described above. Films derived from 100 μl EVA loaded with factors were then made on glass coverslips and allowed to dry overnight under vacuum. Films were removed from the glass substrates and weighed. Films were washed briefly with PBS before being placed in 1 ml toluene to dissolve the polymer. Samples were then analyzed using a Nanodrop-ND-1000 spectrophotometer. Standard curves were generated for each factor, and loading efficiency was calculated as the percent of drug embedded in the polymer compared to the theoretical drug concentration.

For data set [2], the system named is CA2 CCSCs. The data set is described as follows: CA2 patient-derived CCSC proliferation on drug-eluting microarray. The settings on record: for proliferation with increasing drug exposure: CA2 cells, single drug; for drug sensitivity (1/D50) / Emax: non-proliferation. Type of data set: cell-based, human. How it is done:
ALDH^high spheres were generated from tumor cells obtained from patients with colon cancer. Isolated cells were cultured in serum-free media as previously described^14 (reference 14 is hereby incorporated by reference herein with respect to methods for culturing cells in serum-free media). Using these cultures, adherent cell growth was established with 0.1% gelatin (Millipore) coatings on tissue culture plates (TPP, Switzerland) and the cells were serially propagated. For CA1 and CA2 cells, 25,000 cells were tested per array. Cells were seeded in PBS with 0.1% gelatin and treated identically to the microarrays with HCT116.
(§1) Camptothecin-loaded microarrays were stained with Annexin V (BD Pharminigen), fixed in 4% paraformaldehyde, and placed in PBS with Hoechst dye 34580 (Invitrogen, USA) for 30 min. Azide-loaded microarrays were fixed with 4% paraformaldehyde and incubated with PBS containing Hoechst 34580 dye. Finally, nutlin-3a-loaded microarrays were fixed with 4% paraformaldehyde, stained with BrdU (BD Bioscience, San Jose, Calif.), and incubated in PBS containing Hoechst 34580 dye. All arrays were mounted with Fluoro-Gel (Electron Microscope Sciences, Hatfield, Pa.) and imaged using an Axiovert 200M microscope (Carl Zeiss, Oberkochen, Germany). Analysis was performed with Axiovision (Carl Zeiss, Oberkochen, Germany) by quantifying, in each drug-eluting island, the area of fluorescence and reported as relative fluorescence intensity (RFI).
Proliferation values were normalized to control (0 μM drug). Values for concentration-response curves were transformed to non-proliferation by subtracting the normalized value from 100%. Curve fitting analysis was performed to obtain Emax and D50 values using the equation E=E0+(Emax×D)/(D+D50) where E is the effect (either non-proliferation or apoptosis), E0 is the initial value, Emax is the maximum effect, D is the dose, and D50 is the dose at which a 50% maximum effect (Emax) is observed^34. Drug sensitivity values were obtained by taking the inverse of the D50 and multiplying by 100. Those values marked with “#” indicate that the r^2 value of the curve-fit was below 0.65. N/A values are present where negative parameters were obtained.

For data set [3], the system named is HCT116 cells. Nature of the data set: Apoptosis of HCT116 cells incubated with soluble drugs in 96-well plates. The class given is cell-based, human. To be noted: soluble drug, 24 h. On the procedure:
FIGS. 12A-12D are a series of graphs illustrating apoptosis and proliferation dose-response curves from HCT116 cells incubated with soluble drugs. FIG. 12A illustrates the percent of apoptotic HCT116 cells incubated 24 h with soluble nutlin-3a. […] Significant differences were determined by ANOVA, {F(5,282)=19.694, p<0.05}, followed by Tukey's post-hoc analysis. FIG. 12C illustrates the percent of non-proliferating HCT116 cells incubated 24 h with soluble nutlin-3a. Significant differences were determined by ANOVA, {F(4,226)=12.643, p<0.05}, followed by Tukey's post-hoc analysis. […] Significant differences were determined by ANOVA, {F(5,252)=102.485, p<0.05}, followed by Tukey's post-hoc analysis. (*: p<0.05 compared to all other conditions, #:p<0.05 from all conditions marked *).
Results were corroborated using soluble drugs in 96-well plates (FIGS. 12A-D).

For data set [4], the system named is HCT116 cells. Nature of the data set: HCT116 cell number (Hoechst nuclear stain) on drug-loaded microarray. The class given is cell-based, human. To be noted: after 72 h.
Text: The following figures (FIGS. 5.1 to 5.4) are micrographs taken from drug-eluting cellular microarrays, manufactured as described herein. The images are taken from individual cellular islands from the same array under various drug-loading conditions over a period of three days. HCT116 cells are nuclear stained with Hoechst for easy visibility. […] The water phase for this experiment was loaded with azide at various concentrations in addition to a control with no drug loaded. Azide is a useful probe reagent, mutagen, and preservative. Azide inhibits cytochrome oxidase by binding irreversibly to the heme cofactor in a process similar to the action of carbon monoxide. As such, it is expected to induce necrosis in cells at physiologically relevant doses.
To establish microarray fidelity, microarrays were manufactured as described above. HCT116 cells were then seeded over microarrays and incubated for 24 or 72 h. Microarrays were fixed in 4% paraformaldehyde and stained with Hoechst 34580 dye.
as §1

Setting [5] is: Nutlin dose response, 2nd drug CPT 0 μM, CA2.
Setting [6] is: Nutlin dose response, 2nd drug CPT 1 μM, CA2.
Where [7] appears, read: Nutlin dose response, 2nd drug CPT 10 μM, CA2.
Setting [8] is: Nutlin dose response, 2nd drug CPT 50 μM, CA2.

For the molecule `CC[C@@]1(O)C(=O)OCc2c1cc1n(c2=O)Cc2cc3ccccc3nc2-1` [Camptothecin], the “Loading efficiency (%)” value in data set [1] is listed as 92 +/− 3%. The “proliferation with increasing drug exposure” value in data set [2] is “decreasing proliferation”. Also, the “drug sensitivity (1/D50)” value in data set [2] (Camptothecin dose response, 2nd drug NUT 0 μM, CA2) is on record as 133 +/− 5.3* ^; in data set [2] (Camptothecin dose response, 2nd drug NUT 1 μM, CA2), 1.60 +/− 7.9* ^; in data set [2] (Camptothecin dose response, 2nd drug NUT 125 μM, CA2), 0.00 +/− 1.01^#. Also, the Emax in data set [2] (Homo sapiens, Camptothecin dose response, 2nd drug NUT 0 μM, CA2, read-out: Emax) came out at 46.6%; in data set [2] (Homo sapiens, Camptothecin dose response, 2nd drug NUT 1 μM, CA2, read-out: Emax), 52.3%; in data set [2] (Homo sapiens, Camptothecin dose response, 2nd drug NUT 25 μM, CA2, read-out: Emax), 43.9%. Further, the “effect on inducing apoptosis of HCT116 cells” value in data set [3] is “dose-dependent effect”.

As to `COc1ccc(C2=N[C@@H](c3ccc(Cl)cc3)[C@@H](c3ccc(Cl)cc3)N2C(=O)N2CCNC(=O)C2)c(OC(C)C)c1` [Nutlin-3a], the “Loading efficiency (%)” value in data set [1] was 81 +/− 7%. Also, in data set [2] (50 μM camptothecin present vs nutlin-3a alone, CA2, not significant (p=0.097)), the “decrease in Emax of the concentration response curve to nutlin-3a” value turned out to be 53%. In addition, the “proliferation with increasing drug exposure” value in data set [2] is listed as “decreasing proliferation”. The Emax in data set [2] (setting [5]) is 73.3 +/− 9.3*; in data set [2] (setting [6]), 43.8 +/− 11; in data set [2] (setting [7]), 57.0 +/− 39; in data set [2] (setting [8]), 34.1 +/− 9.3*. The “drug sensitivity (1/D50)” value is given as 171 +/− 49 ^ in data set [2] (setting [5]), 189 +/− 328 ^ in data set [2] (setting [6]), 0.95 +/− 4.6^# in data set [2] (setting [7]) and 303 +/− 260 ^ in data set [2] (setting [8]). The “HCT116 cell numbers vs drug loading concentration” value in data set [4] is listed as “decreased with increasing loading concentrations”. In data set [3], the “effect on inducing apoptosis of HCT116 cells” value is reported as “no effect”.

The record behind these values is patent publication US9557319B2, “Cell-based arrays, methods of making, and methods of using” (University of Florida Research Foundation, Inc., priority 2010, dated 2017).
